Key:
Vasopressin V2 receptor = Vasopressin V2 receptor (Homo sapiens, UniProt P30518)
Progesterone receptor = target: T1, Progesterone receptor (Homo sapiens, UniProt P06401); type: functional
T1 sequence (P06401 whole entry): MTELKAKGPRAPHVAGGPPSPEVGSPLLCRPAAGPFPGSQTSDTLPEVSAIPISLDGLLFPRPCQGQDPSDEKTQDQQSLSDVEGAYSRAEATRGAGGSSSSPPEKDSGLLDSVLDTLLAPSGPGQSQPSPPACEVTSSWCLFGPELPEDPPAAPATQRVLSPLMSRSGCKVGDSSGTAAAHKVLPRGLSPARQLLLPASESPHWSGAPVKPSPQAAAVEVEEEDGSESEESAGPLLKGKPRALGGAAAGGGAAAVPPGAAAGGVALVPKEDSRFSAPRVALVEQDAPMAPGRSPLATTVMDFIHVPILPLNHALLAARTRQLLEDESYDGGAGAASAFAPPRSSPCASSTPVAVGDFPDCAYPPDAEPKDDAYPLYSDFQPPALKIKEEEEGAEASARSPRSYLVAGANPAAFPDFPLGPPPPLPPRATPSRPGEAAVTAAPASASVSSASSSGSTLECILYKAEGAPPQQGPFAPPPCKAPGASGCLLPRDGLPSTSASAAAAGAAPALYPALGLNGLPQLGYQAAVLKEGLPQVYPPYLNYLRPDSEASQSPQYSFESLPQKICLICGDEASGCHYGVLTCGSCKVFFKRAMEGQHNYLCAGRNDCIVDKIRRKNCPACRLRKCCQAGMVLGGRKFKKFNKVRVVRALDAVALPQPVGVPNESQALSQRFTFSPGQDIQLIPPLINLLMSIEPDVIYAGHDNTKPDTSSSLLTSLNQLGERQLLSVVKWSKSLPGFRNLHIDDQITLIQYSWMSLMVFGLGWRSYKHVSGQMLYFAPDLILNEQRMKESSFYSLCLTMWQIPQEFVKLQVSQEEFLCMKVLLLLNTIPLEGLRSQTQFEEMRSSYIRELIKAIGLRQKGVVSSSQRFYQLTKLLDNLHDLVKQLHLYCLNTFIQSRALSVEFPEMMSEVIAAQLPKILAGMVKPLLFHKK

[1] = target: Sodium channel protein type 5 subunit alpha (Homo sapiens, UniProt Q14524); type: functional, cell-based
B1 bradykinin receptor = target: T2, B1 bradykinin receptor (Homo sapiens, UniProt P46663)
T2 sequence (P46663 whole entry): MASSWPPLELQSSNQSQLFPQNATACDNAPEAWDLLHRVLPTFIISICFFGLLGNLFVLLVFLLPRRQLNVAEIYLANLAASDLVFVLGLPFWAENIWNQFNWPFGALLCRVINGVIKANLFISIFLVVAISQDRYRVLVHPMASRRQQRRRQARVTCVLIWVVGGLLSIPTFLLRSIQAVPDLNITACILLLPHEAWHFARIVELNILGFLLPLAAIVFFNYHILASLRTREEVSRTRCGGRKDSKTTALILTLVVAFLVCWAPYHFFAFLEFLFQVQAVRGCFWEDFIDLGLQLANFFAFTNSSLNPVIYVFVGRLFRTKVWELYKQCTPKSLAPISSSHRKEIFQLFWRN

[2] = target: Voltage-dependent N-type calcium channel subunit alpha-1B (Rattus norvegicus, UniProt Q02294); type: functional
Sequence of Voltage-dependent N-type calcium channel subunit alpha-1B (Q02294 whole entry): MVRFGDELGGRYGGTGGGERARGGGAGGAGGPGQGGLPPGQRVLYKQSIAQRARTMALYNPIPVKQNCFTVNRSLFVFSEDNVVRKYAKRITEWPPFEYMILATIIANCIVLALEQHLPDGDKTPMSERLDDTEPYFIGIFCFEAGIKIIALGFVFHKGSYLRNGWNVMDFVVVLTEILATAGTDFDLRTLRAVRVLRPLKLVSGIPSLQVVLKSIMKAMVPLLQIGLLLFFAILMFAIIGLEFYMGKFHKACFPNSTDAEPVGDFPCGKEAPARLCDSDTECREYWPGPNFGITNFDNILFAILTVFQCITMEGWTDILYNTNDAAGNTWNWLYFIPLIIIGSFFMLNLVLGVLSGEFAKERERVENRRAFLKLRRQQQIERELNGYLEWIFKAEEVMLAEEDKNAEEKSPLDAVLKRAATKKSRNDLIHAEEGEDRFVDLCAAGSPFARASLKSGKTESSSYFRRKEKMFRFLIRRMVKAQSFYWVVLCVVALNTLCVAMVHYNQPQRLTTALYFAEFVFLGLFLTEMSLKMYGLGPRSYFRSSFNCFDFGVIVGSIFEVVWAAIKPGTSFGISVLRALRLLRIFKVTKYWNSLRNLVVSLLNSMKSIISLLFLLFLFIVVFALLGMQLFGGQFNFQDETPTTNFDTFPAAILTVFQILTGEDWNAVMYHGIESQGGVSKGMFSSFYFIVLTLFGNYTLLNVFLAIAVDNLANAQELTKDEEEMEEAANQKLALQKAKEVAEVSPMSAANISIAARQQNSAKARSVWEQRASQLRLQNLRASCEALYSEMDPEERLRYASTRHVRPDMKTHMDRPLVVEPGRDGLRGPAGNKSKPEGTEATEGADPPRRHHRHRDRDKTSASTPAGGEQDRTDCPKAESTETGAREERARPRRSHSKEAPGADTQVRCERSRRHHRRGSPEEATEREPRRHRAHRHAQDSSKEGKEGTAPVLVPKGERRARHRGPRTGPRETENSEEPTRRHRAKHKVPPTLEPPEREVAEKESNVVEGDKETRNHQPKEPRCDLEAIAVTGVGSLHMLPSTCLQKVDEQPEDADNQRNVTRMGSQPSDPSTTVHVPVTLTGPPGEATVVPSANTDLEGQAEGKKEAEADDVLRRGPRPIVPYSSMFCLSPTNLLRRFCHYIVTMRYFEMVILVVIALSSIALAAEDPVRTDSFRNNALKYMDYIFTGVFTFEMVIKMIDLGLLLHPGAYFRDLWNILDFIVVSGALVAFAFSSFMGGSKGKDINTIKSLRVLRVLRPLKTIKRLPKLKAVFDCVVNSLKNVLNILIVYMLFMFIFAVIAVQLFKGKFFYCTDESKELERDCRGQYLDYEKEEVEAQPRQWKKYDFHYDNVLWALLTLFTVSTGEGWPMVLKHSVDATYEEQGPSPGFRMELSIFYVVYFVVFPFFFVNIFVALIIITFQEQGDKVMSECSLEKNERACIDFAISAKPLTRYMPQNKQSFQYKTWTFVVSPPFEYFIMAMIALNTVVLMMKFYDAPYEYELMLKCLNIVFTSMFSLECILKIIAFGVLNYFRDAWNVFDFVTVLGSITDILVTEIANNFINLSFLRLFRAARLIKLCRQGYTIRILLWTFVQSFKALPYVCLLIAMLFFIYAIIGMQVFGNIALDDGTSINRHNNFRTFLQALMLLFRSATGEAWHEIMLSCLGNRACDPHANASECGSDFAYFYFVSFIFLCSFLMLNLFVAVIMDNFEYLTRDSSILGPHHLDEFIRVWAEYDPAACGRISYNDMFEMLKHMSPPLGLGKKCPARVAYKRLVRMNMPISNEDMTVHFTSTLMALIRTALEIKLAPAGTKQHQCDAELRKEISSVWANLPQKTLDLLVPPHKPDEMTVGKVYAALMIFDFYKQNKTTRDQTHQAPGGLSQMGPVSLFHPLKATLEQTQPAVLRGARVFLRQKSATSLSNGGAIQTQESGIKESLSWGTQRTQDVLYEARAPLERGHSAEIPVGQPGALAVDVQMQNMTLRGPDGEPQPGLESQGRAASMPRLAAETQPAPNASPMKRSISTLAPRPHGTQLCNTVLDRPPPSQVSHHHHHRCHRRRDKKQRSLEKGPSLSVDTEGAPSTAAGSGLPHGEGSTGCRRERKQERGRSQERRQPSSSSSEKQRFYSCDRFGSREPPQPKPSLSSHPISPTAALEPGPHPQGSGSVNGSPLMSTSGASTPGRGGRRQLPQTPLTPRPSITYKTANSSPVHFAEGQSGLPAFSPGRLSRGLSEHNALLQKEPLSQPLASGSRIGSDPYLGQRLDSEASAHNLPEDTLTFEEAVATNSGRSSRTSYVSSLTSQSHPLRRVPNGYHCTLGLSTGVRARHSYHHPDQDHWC

[3] = target: T3, Gastric inhibitory polypeptide receptor (Homo sapiens, UniProt P48546)
T3 sequence (P48546 whole entry): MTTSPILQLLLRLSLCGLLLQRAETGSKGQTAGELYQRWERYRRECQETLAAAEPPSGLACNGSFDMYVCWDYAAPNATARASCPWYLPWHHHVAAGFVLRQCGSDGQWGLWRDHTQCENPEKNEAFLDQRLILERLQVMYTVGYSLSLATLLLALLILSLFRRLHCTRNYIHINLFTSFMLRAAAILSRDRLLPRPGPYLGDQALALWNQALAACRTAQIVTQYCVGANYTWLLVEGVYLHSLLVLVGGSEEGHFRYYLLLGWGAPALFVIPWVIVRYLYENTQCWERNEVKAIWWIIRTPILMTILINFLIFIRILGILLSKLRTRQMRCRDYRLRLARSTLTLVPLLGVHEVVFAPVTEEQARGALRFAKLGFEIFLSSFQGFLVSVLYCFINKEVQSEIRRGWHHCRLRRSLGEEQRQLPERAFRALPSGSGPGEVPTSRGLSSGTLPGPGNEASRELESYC

Histamine H3 receptor = Histamine H3 receptor (Homo sapiens, UniProt Q9Y5N1)
Sequence of Histamine H3 receptor (Q9Y5N1 whole entry): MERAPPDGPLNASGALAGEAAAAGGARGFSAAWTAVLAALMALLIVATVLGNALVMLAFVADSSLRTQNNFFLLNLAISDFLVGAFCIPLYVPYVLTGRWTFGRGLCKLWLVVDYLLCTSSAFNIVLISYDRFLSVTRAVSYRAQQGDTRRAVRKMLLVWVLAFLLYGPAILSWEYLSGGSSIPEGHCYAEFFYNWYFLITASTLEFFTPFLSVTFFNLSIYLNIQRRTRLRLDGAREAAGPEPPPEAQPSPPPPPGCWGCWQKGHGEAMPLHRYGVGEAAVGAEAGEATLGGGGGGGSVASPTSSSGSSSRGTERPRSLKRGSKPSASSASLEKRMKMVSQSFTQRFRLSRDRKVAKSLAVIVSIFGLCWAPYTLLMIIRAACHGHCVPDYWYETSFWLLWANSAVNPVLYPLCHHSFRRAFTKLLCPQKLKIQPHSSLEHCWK

[4] = target: Prostaglandin G/H synthase 1 (Homo sapiens, UniProt P23219); type: functional
Sequence of Prostaglandin G/H synthase 1 (P23219 whole entry): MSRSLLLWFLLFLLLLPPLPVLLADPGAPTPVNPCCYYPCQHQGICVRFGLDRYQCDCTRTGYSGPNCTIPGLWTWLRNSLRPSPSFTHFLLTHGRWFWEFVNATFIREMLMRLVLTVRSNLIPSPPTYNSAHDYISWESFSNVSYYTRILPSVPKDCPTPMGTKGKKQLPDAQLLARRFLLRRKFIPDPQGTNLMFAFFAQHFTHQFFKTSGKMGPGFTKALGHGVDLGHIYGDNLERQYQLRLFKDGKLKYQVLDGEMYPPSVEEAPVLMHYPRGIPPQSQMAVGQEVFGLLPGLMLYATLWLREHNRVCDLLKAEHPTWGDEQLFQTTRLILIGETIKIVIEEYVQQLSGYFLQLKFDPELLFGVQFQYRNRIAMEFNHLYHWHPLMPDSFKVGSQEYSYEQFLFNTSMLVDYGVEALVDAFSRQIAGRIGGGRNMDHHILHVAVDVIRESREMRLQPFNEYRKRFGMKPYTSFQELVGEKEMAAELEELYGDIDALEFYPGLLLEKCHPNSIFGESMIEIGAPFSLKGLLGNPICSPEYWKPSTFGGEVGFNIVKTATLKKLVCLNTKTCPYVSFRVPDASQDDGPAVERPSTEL

[5] = target: Sodium-dependent noradrenaline transporter (Homo sapiens, UniProt P23975)
Sequence of Sodium-dependent noradrenaline transporter (P23975 whole entry): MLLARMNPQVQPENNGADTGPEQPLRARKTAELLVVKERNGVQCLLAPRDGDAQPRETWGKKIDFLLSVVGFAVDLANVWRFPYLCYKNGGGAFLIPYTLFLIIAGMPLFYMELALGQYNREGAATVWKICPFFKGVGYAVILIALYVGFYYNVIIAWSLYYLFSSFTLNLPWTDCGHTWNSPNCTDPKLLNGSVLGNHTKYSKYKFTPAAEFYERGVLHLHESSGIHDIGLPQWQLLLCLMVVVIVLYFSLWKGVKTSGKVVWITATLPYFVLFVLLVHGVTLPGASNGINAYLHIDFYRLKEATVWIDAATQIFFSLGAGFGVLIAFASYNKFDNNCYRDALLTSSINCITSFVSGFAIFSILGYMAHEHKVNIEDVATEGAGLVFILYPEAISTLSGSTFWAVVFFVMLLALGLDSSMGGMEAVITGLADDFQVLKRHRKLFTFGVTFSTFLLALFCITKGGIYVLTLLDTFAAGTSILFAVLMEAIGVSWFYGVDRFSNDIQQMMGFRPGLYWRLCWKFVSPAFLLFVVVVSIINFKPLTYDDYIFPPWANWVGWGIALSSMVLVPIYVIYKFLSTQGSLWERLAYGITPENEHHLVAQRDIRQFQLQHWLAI

[6] = target: T4, Alpha-2A adrenergic receptor (Homo sapiens, UniProt P08913)
T4 sequence (P08913 whole entry): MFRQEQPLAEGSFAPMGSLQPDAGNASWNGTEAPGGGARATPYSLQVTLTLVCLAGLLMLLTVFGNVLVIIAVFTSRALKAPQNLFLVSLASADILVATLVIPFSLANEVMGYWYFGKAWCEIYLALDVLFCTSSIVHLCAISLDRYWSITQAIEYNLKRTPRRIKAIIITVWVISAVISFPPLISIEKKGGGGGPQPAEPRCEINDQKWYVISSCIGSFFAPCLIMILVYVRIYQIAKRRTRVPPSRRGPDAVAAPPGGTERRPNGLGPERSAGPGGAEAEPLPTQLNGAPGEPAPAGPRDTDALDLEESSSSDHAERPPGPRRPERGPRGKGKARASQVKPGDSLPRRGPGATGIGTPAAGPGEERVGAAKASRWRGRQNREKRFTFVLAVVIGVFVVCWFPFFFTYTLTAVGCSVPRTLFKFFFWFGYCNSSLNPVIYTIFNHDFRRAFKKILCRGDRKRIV

Mu-type opioid receptor = Mu-type opioid receptor (Homo sapiens, UniProt P35372)
Sequence of Mu-type opioid receptor (P35372 whole entry): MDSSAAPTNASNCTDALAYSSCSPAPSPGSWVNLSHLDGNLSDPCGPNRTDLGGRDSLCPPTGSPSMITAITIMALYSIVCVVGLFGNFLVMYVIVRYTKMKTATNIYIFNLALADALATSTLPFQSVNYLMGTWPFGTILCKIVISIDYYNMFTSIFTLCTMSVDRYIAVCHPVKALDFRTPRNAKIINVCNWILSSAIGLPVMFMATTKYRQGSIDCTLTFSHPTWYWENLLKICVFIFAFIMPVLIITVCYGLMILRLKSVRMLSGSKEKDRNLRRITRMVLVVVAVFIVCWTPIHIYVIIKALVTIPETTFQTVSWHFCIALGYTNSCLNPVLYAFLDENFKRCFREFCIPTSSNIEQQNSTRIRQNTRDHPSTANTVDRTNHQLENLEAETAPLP
Further: assay procedure not described here.

Sequence of Vasopressin V2 receptor (P30518 whole entry): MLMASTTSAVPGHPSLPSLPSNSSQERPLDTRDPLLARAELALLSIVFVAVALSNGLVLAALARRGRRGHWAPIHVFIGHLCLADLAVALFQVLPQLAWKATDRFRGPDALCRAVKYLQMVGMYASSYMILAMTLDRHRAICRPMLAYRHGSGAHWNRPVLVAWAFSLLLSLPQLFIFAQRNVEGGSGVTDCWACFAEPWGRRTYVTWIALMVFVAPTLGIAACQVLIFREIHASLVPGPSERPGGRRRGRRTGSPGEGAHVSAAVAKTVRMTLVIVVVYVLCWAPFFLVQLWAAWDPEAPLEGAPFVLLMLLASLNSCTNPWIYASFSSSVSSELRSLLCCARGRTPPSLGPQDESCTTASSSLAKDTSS

SMILES	AC50 (Vasopressin V2 receptor) [µM]	AC50 (Progesterone receptor) [µM]	AC50 [1] [µM]	AC50 (B1 bradykinin receptor) [µM]	AC50 [2] [µM]	AC50 [3] [µM]	AC50 (Histamine H3 receptor) [µM]	AC50 [4] [µM]	AC50 [5] [µM]	AC50 [6] [µM]	AC50 (Mu-type opioid receptor) [µM]
COC(=O)N[C@H](C(=O)N1CCC[C@H]1c1nc(-c2ccc(-c3ccc(-c4c[nH]c([C@@H]5CCCN5C(=O)[C@@H](NC(=O)OC)C(C)C)n4)cc3)cc2)c[nH]1)C(C)C	> 30	> 30	> 30	–	–	–	–	–	–	–	–
Nc1nc(N)c2nc(-c3ccccc3)c(N)nc2n1	> 30	> 30	–	> 10	> 10	> 30	> 30	> 30	16.1	> 10	17
C[C@H]1O[C@H](O[C@H]2[C@H](O)[C@@H](O)[C@@H](O[C@H]3[C@H](O)[C@@H](O)C(O)O[C@@H]3CO)O[C@@H]2CO)[C@H](O)[C@@H](O)[C@@H]1N[C@H]1C=C(CO)[C@@H](O)[C@H](O)[C@H]1O (stereo not given in full) [ACARBOSE]	> 30	> 30	–	> 30	> 10	> 30	> 30	24.4	> 30	> 10	> 10
Oc1ncnc2[nH]ncc12 [ALLOPURINOL]	> 30	–	–	> 30	> 10	> 30	> 30	> 30	> 30	> 10	> 30
CC(N)Cc1ccccc1 (stereo not given) [AMPHETAMINE]	> 30	> 30	–	> 30	> 10	> 30	–	–	–	–	–
O=C1c2c(O)c(=O)ccn2N([C@@H]2c3ccccc3SCc3c2ccc(F)c3F)[C@@H]2COCCN12 [BALOXAVIR]	–	–	> 50	–	–	–	> 30	> 30	> 30	–	–
COc1cc(Nc2c(C#N)cnc3cc(OCCCN4CCN(C)CC4)c(OC)cc23)c(Cl)cc1Cl [BOSUTINIB]	–	–	–	> 30	> 10	> 30	–	> 30	24.1	6.01	–
CCC[C@@H]1C[C@@H](C(=O)N[C@@H]([C@H]2O[C@H](SC)[C@H](O)[C@@H](O)[C@H]2O)[C@H](C)Cl)N(C)C1 [CLINDAMYCIN]	> 30	–	–	> 30	> 10	> 30	–	–	–	> 10	> 30
CN(C)CCCN1c2ccccc2CCc2ccc(Cl)cc21 [CLOMIPRAMINE]	–	–	–	–	> 10	–	> 30	–	–	> 10	> 10
CN(CCOc1ccc(NS(C)(=O)=O)cc1)CCc1ccc(NS(C)(=O)=O)cc1 [DOFETILIDE]	> 30	–	–	> 30	> 10	> 30	> 30	> 30	> 30	> 10	> 30
COc1cc2c(cc1OC)C(=O)C(CC1CCN(Cc3ccccc3)CC1)C2 (stereo not given) [DONEPEZIL]	> 30	–	–	> 30	–	> 30	5.2	> 30	9.13	10.4	> 30
COC(=O)[C@@H]1CC2=CC(=O)CC[C@]2(C)[C@@]23O[C@@H]2C[C@@]2(C)[C@@H](CC[C@@]24CCC(=O)O4)[C@H]13 [EPLERENONE]	> 30	–	–	> 30	> 10	> 30	–	–	–	> 10	> 30
